This series concerns Botryococcus sp. colonies. Kind of series: Flotation (buoyancy) of sunken colonies as visual readout of hydrocarbon content. The series is classed as cell-based. An excerpt: Previous investigations (Ohmori, et al. 1984; and Wolf, et al, 1985) verified that colonies containing greater than 20% of dry weight as botryococcenoid hydrocarbons were buoyant and that colonies containing less than 5% hydrocarbons remained sunken at the bottom of the culture vessel, providing a visual method for selecting cells with commercial-grade hydrocarbons. […] Colonies in hydrocarbon-enhancement were placed in the dark without supplemental carbon dioxide gas to eliminate artifacts of flotation from bubbles. Environmental conditions were 150 μE/m^2/sec PAR to 1700 μE/m^2/sec PAR at 25-37° Centigrade. Nutrient chemicals were reagent grade in all laboratory-scale experiments. In field-scale tests, fertilizer grade chemical nutrients were provided. In order to minimize or eliminate ammonia, nitrates were optionally kiln dried prior to admixture. Supplementation with 0.1% to 100% carbon dioxide gas or carbonate (e.g., 10 mg/ml sodium bicarbonate or potassium bicarbonate) increased hydrocarbon synthesis substantially, especially, when under the highest light intensities with soluble elements of the present invention. […]

Turning to phosphates, the “total phosphate concentration that stimulated the rise of colonies to the surface” value (subtractive matrix analysis, most rapid in presence of soluble Mg, Mn, Fe, Zn+2) was “greater than 80 mM”. Under “two weeks or more in 300 mM phosphate”, the “state of colonies after long exposure” value is on record as “remained floating, but cleared to amber”.

For the origin of these results see patent US7923228B2, “Methods and compositions for growth of hydrocarbons in Botryococcus sp” (priority 2005, dated 2011).
